Patent publication US12655120B2, “GPR52 modulator compounds” (NXERA PHARMA UK LIMITED, priority 2020, dated 2026)

What was measured:
human GPR52 = molecular target: T1, human GPR52 (Homo sapiens, UniProt Q9Y2T5); assay: GPR52 Agonist Functional cAMP Assay; assay type: cell-based; details: for Emax: normalised to DMSO (0%) and maximal compound 7m (J. Med. Chem., 2014, 57, 5226) response (100%)
T1 construct: expressed in transfected cells; host or cells: HEKf suspension cells infected with BacMam virus
Method: HEKf suspension cells were infected for 24 h with 0.1% v/v human GPR52 expressing BacMam virus, a modified baculovirus designed for mammalian gene expression. Following BacMam infection, cells were pelleted by centrifugation (335 g, 5 min), resuspended in cell freezing medium (Sigma) and frozen at −150° C. until required. On experiment day, 25 nL GPR52 compound dilutions, prepared in DMSO, were stamped onto proxiplates (PerkinElmer) by a LabCyte ECHO acoustic dispenser. Frozen cells were thawed and resuspended in assay stimulation buffer (Cisbio) containing 0.5 mM 3-iso-butyl-1-methylxanthine (IBMX, Sigma) to achieve a density of 2000 cells per well. 10 μl cells were added to assay plates using a Multidrop Combi Reagent Dispenser (ThermoFisher) before centrifugation (335 g, 1 min). Cells were incubated with compounds at 37° C. for 30 min prior to addition of cAMP detection reagents (HiRange cAMP kit, Cisbio) which were prepared according to the manufacturer's instructions. Plates were shaken for 1 h at room temperature before reading on a PHERAstar FS plate reader (BMG Labtech) using standard HTRF settings. HTRF ratios were obtained by dividing the acceptor emissions (665 nm) by the donor emissions (620 nm) and multiplying by 10,000.

[1] = Pharmacokinetic profiling in male Sprague-Dawley rats (IV and PO); assay type: in vivo; details: plasma, Rat PO, 3 mg/kg, n = 3, mean ± standard deviation
Method: The pharmacokinetic profiles of Example 39 were assessed in male Sprague-Dawley rats via intravenous (IV) and oral (per os, PO) routes of delivery. Pharmacokinetic data (mean values ±standard deviation) for Example 39 of the invention are detailed in Table 5.
Methods: For pharmacokinetic analysis, groups of three male Sprague-Dawley rats, ranging in weight between 200 and 230 g, were administered a single dose of Example 39 via IV or PO route, using the doses, dose volumes and vehicles specified in Table 5. Following dosing, blood samples were taken at several time points (pre-dose, 2 min, 5 min, 15 min, 30 min, 1 h, 3 h, 6 h, 12 h and 24 h for IV administration and pre-dose, 5 min, 15 min, 30 min, 1 hr, 2 h, 4 h, 8 h, 12 h and 24 h for PO administration) via serial tail vein bleeds, and centrifuged to separate plasma for analysis by LC-MS/MS. WinNonlin v8.2 statistics software (Pharsight Corporation, California, USA) was used to generate pharmacokinetic parameters using non-compartmental analysis.

[2] = tested on: caffeine-induced hyperlocomotor activity; assay: Caffeine-induced locomotor activity in rat; assay type: in vivo, male Sprague-Dawley rats; details: 0.1, 0.3, 1 and 3 mg/kg PO, 60 min before caffeine 15 mg/kg s.c.; statistical significance at 1 and 3 mg/kg
Text: Caffeine, a non-selective adenosine receptor antagonist, is a psychostimulant which increases rodent locomotor activity principally via blockade of A2A receptors (Br. J. Pharmacol., 2000, 129, 1465). These receptors are densely expressed on the terminals of GABAergic striatopallidal neurons in the indirect pathway of the basal ganglia, in which dopamine D2 receptors are co-expressed (J. Comp. Neurol., 1998, 401, 163; J. Comp. Neurol., 2001, 431, 331). Tonic activation of A2A receptors decreases the affinity of D2 receptors to dopamine and antagonism of A2A receptors facilitates dopaminergic signalling (Curr. Pharm. Des., 2008, 14, 1468). […] Male Sprague-Dawley rats (200-250 g) were housed in groups with a 12 h light/dark cycle (lights on at 07.00), at an ambient temperature of 21±2° C. and with standard pelleted diet and water adlibitum. Testing was carried out in the light phase. On the day of the experiment, animals were habituated to the locomotor cages for a 60-minute period. Subsequently, they were dosed with vehicle or Example 39 (0.1, 0.3, 1 and 3 mg/kg) by the oral route and returned to the appropriate locomotor cage. Example 39 was formulated in a vehicle of 10% DMAC, 10% solutol (Kolliphor HS15) and 80% water (v/v/v). […] Locomotor activity was assessed for a 2 h period after caffeine treatment. […] SEMs were calculated from the residuals of the statistical model. […]

T1 sequence (Q9Y2T5 whole entry): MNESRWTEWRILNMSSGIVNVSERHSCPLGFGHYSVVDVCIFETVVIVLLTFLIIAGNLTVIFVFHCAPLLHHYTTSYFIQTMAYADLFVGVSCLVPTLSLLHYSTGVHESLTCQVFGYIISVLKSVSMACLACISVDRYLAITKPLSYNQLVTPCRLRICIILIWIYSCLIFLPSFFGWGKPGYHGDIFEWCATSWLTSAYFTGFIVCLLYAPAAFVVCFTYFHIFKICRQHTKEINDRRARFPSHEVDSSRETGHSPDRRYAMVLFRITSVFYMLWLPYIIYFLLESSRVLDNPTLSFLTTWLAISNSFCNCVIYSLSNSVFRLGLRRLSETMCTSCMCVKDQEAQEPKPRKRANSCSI

SMILES | Emax (human GPR52) [%] | bioavailability [1] [%] | effect on caffeine-induced hyperlocomotor response [2] | EC50 (human GPR52; HEKf cells infected with human GPR52 BacMam, HTRF cAMP, 30 min at 37° C., read-out: pEC50 average (converted)) [nM]
Cc1nn(-c2cc(Cc3cc(F)cc(C(F)(F)F)c3)ccn2)c(CO)c1C(N)=O [Example 39, 1-(4-(3-fluoro-5-(trifluoromethyl)benzyl)pyridin-2-yl)-5-(hydroxymethyl)-3-methyl-1H-pyrazole-4-carboxamide] | 101 | 77.4 ± 14.9 | dose-dependent reduction | 
Cc1nn(-c2cc(Cc3cc(F)cc(C(F)F)c3)ccn2)c(CO)c1C(N)=O [Example 44, 1-(4-(3-(difluoromethyl)-5-fluorobenzyl)pyridin-2-yl)-5-(hydroxymethyl)-3-methyl-1H-pyrazole-4-carboxamide] | 101 |  |  | 
CNC(=O)c1ccn(-c2cc(Cc3cc(F)cc(C(F)F)c3)ccn2)n1 [Example 46, 1-(4-(3-(difluoromethyl)-5-fluorobenzyl)pyridin-2-yl)-N-methyl-1H-pyrazole-3-carboxamide] | 88 |  |  | 50.1
